The test system of data set [1] is Salmonella typhimurium strains TA97a, TA98, TA100, TA1535 and Escherichia coli strain WP2 uvrA (pKM101). The experiment in a line: Ames bacterial reverse mutation assays. It counts as cell-based. The note with it: in the presence and absence of an exogenous metabolic activation system. The protocol:
Mutagenicity studies were conducted and included two Ames bacterial reverse mutation assays in which the galactomannan of the invention was evaluated by itself in the first study and combined with 5-FU in the second study. The test articles in both studies were evaluated in bacterial assays using Salmonella typhimurium strains TA97a, TA98, TA100, TA1535 and Escherichia coli strain WP2 uvrA (pKM101), both in the presence and absence of an exogenous metabolic activation system.

Data set [2] deals with rats. Description: Acute toxicology, single IV dose in rats. The format is in vivo. The protocol: Acute toxicology studies of the galactomannan of the present invention were performed in mice, rats and dogs and subchronic toxicology studies were performed in rats and dogs. The following is a summary of the findings of these studies:
In rats (n=5/sex/group), single IV doses of 140 mg/kg (840 mg/m2) 5-FU, 72 mg/kg (432 mg/m2) galactomannan or 140/72 mg/kg of the combination produced no deaths in any of the groups.
Toxic changes in body weight, feed consumption, and hematology were less severe in the rats injected with the combination, versus those injected with 5-FU alone.

Data set [3] relates to rats. Description: Repeat dose I.V. rat study with GMP grade galactomannan (Example 8). The format is in vivo. The protocol:
Studies with repeat dose I.V. in rats with up to 52-day recovery period was performed using filtered GMP grade galactomannan material containing 48 or 96 mg/kg (288 or 576 mg/m2). Five animals of each sex were sacrificed at days 5, 28 and 56.
The galactomannan of the invention has minimal histological effects with only 1/30 rats injected with 48 mg/kg dose of the GMP galactomannan clinical solution having granulomatous inflammation. […] It was concluded that galactomannan clinical solutions, up to a dose of 15 mg/kg (555 mg/m2; 9 mg/mL), is safe for human use and poses no undue risk to health.

Data set [4] is described as follows: Biodistribution of 3H-galactomannan in tumor-bearing and non-tumor bearing mice (Example 6). The format is in vivo. The procedure:
The biodistribution of 3H-galactomannan was studied in tumor-bearing and non-tumor bearing mice. […] 3H-galactomannan elimination from plasma, kidneys, lungs and tumor in the various groups was rapid, an average of approximately 50% of the one-hour radioactivity was detected at six hours except in tumor-bearing mice, where the radioactivity in tumor samples from mice treated with 6 or 60 mg/kg of 3H-galactomannan with or without 5-FU averaged approximately 72% remaining after six hours. Elimination of 3H-galactomannan from the liver was more gradual than in other tissues, and on average, more than 50% of the radioactivity detected at one hour after injection was still present at 24 hours.
Male NCr-nu athymic nude mice (Charles Rivers Laboratories, Raleigh, N.C.) were acclimated and housed as described above. The first set of animals (a total of 18 mice) were non-tumored mice. The second set of 18 mice were tumored as follows. […]
Tritiation of GM from G. triacanthos was performed as follows. […] Total yield of the labeled GM was 3.8 mCi, specific radioactivity was 300 μCi/mg.
All 36 mice, divided into 18 groups, were given a single intravenous injection of cold or tritiated GM (either 6 or 60 mg/kg) or of a combination of GM (60 mg/kg, cold or tritiated) and 5-FU (114 mg/kg) on the same day. Non-labeled GM was formulated in saline, and tritiated GM was added to the solution so that each animal received 10 μCi of radioactivity. […] All dosing solutions (100 μL each) were counted in duplicate. […]
After weighing, livers were dissolved in 10 mL of Soluene 350 (Packard Instruments, Downers Grove, Ill.) and incubated first for 4 hrs at 50° C., and at room temperature, until tissues were solubilized. One millilter of the resulting solution was counted in a scintillation counter as a single sample. Based on tissue weight and the sample volume, the number of μCi of tritiated GM per gram of tissue was calculated.
Kidneys were treated in the same manner, but dissolved in 2 mL of Soluene. […] Plasma samples (50 μL each) were placed direct into Safety Solve and counted as a single sample. […]

“(((1,4)-linked β-D-mannopyranose)17-((1,6)-linked-β-D-galactopyranose)10)12) [GM]”: the mutagenic activity entry in data set [1] (listed as galactomannan) was “not mutagenic”; in data set [1] (listed as galactomannan of the invention), “No evidence of mutagenic activity”. The deaths entry in data set [2] (5-FU 140 mg/kg, galactomannan 72 mg/kg, combination 140/72 mg/kg, n=5/sex/group) is listed as “no deaths”. The untoward effects entry in data set [2] (galactomannan 72 mg/kg (432 mg/m2) alone) is on record as “no significant untoward effects”. Moreover, the “rats having granulomatous inflammation” value was 1/30 in data set [3] (48 mg/kg dose of GMP galactomannan clinical solution) and “None of the 30” in data set [3] (96 mg/kg dose of GMP galactomannan clinical solution). In data set [4] (60 mg/kg versus 6 mg/kg), the “increase of the amount of bound galactomannan for the 10-times higher dose” value came out at 10 fold. Also, the saturation of binding result in data set [4] (6 to 60 mg/kg (18 to 180 mg/m2)) was “did not reach saturation”. Besides, in data set [4] (single i.v. injection, 6 or 60 mg/kg), the “binding to liver, kidney, lung, tumor, and plasma” value is “freely binds”.

(Values after US7893252B2, “Selectively depolymerized galactomannan polysaccharide” (priority 2003, dated 2011).)
